Assay results from ChEMBL document CHEMBL3885861, “Open TG-GATES”.
Where “and” joins values, the source holds several entries; their conditions need not be identical. Identical values can stand only once.

Species: Rattus norvegicus
Assay: Open TG-GATES - Regimen: Single
Type: toxicity, organism-based, Sprague-Dawley
Design: regimen Single, gender Male, age 6 weeks
Details: in vivo, po, route gavage; for LIVER: tissue Liver; for A/G / ALP / ALT / AST / BUN / CRE / Ca / Cl / GLC / IP / K / LDH / Na / PL / RALB / TBIL / TC / TG / TP / gamma-GTP / DBIL: tissue Plasma; for APTT / Bas / Eos / Fbg / Hb / Ht / Lym / MCH / MCHC / MCV / Mono / Neu / PT / Plat / RBC / Ret / WBC: tissue Blood; for KIDNEY_L / KIDNEY_R / KIDNEY_TOTAL: tissue Kidney
[1] = 0 mg/kg, 24 h, dose level Control

COc1ccc2c(c1)c(CC(=O)O)c(C)n2C(=O)c1ccc(Cl)cc1 [INDOMETHACIN]
LIVER [1]: 10.4 g and 11.1 g | A/G [1]: 2.1 and 1.6 | ALP [1]: 1109.6 IU/L and 886.6 IU/L | ALT [1]: 39.6 IU/L and 36.4 IU/L | AST [1]: 68 IU/L and 72.6 IU/L | BUN [1]: 18 mg/dL and 13.8 mg/dL | CRE [1]: 0.5 mg/dL and 0.4 mg/dL | Ca [1]: 10.5 mg/dL and 10.7 mg/dL | Cl [1]: 105 meq/L and 102.8 meq/L | GLC [1]: 185.4 mg/dL and 187.8 mg/dL | IP [1]: 8.8 mg/dL and 7.4 mg/dL | K [1]: 5.7 meq/L and 4.3 meq/L | LDH [1]: 106 IU/L and 240.2 IU/L | Na [1]: 138.8 meq/L and 140.6 meq/L | PL [1]: 153.2 mg/dL and 145.8 mg/dL | RALB [1]: 4 g/dL and 3.4 g/dL | TBIL [1]: 0.2 mg/dL and 0.1 mg/dL | TC [1]: 83.2 mg/dL and 72.2 mg/dL | TG [1]: 84 mg/dL and 116 mg/dL | TP [1]: 5.9 g/dL and 5.5 g/dL | gamma-GTP [1]: 1.2 IU/L and 1.4 IU/L | TERMINAL_BW (1 mg/kg, 3 h, dose level Low): 199.2 g | APTT (1 mg/kg, 3 h, dose level Low): 17.2 s | Bas (1 mg/kg, 3 h, dose level Low): 0% | Eos (1 mg/kg, 3 h, dose level Low): 0.6% | Fbg (1 mg/kg, 3 h, dose level Low): 222.4 mg/dL | Hb (1 mg/kg, 3 h, dose level Low): 13.3 g/dL | Ht (1 mg/kg, 3 h, dose level Low): 40% | Lym (1 mg/kg, 3 h, dose level Low): 81.2% | MCH (1 mg/kg, 3 h, dose level Low): 21.8 pg | MCHC (1 mg/kg, 3 h, dose level Low): 33.1% | MCV (1 mg/kg, 3 h, dose level Low): 65.7 fL | Mono (1 mg/kg, 3 h, dose level Low): 8.6% | Neu (1 mg/kg, 3 h, dose level Low): 9.8% | PT (1 mg/kg, 3 h, dose level Low): 12.4 s | Plat (1 mg/kg, 3 h, dose level Low): 99.5 x10_4/uL | RBC (1 mg/kg, 3 h, dose level Low): 610 x10_4/ul | Ret (1 mg/kg, 3 h, dose level Low): 9.6% | WBC (1 mg/kg, 3 h, dose level Low): 95.5 x10_2/uL | KIDNEY_L (1 mg/kg, 3 h, dose level Low): 0.9 g | KIDNEY_R (1 mg/kg, 3 h, dose level Low): 0.9 g | KIDNEY_TOTAL (1 mg/kg, 3 h, dose level Low): 1.8 g | LIVER (1 mg/kg, 3 h, dose level Low): 9.5 g | A/G (1 mg/kg, 3 h, dose level Low): 1.7 | ALP (1 mg/kg, 3 h, dose level Low): 1062.4 IU/L | ALT (1 mg/kg, 3 h, dose level Low): 37.4 IU/L | AST (1 mg/kg, 3 h, dose level Low): 68.6 IU/L | BUN (1 mg/kg, 3 h, dose level Low): 11.8 mg/dL | CRE (1 mg/kg, 3 h, dose level Low): 0.5 mg/dL | Ca (1 mg/kg, 3 h, dose level Low): 10.5 mg/dL | Cl (1 mg/kg, 3 h, dose level Low): 105.6 meq/L | DBIL (1 mg/kg, 3 h, dose level Low): 0.018 mg/dL | GLC (1 mg/kg, 3 h, dose level Low): 187.8 mg/dL | IP (1 mg/kg, 3 h, dose level Low): 9 mg/dL | K (1 mg/kg, 3 h, dose level Low): 4.8 meq/L | LDH (1 mg/kg, 3 h, dose level Low): 100 IU/L | Na (1 mg/kg, 3 h, dose level Low): 137.4 meq/L | PL (1 mg/kg, 3 h, dose level Low): 130.4 mg/dL | RALB (1 mg/kg, 3 h, dose level Low): 3.8 g/dL | TBIL (1 mg/kg, 3 h, dose level Low): 0.3 mg/dL | TC (1 mg/kg, 3 h, dose level Low): 75.6 mg/dL | TG (1 mg/kg, 3 h, dose level Low): 41.8 mg/dL | TP (1 mg/kg, 3 h, dose level Low): 6.1 g/dL | gamma-GTP (1 mg/kg, 3 h, dose level Low): 1.6 IU/L | TERMINAL_BW (1 mg/kg, 6 h, dose level Low): 195.5 g | APTT (1 mg/kg, 6 h, dose level Low): 16.7 s | Bas (1 mg/kg, 6 h, dose level Low): 0% | Eos (1 mg/kg, 6 h, dose level Low): 0.6% | Fbg (1 mg/kg, 6 h, dose level Low): 210.6 mg/dL | Hb (1 mg/kg, 6 h, dose level Low): 13.6 g/dL | Ht (1 mg/kg, 6 h, dose level Low): 41.1% | Lym (1 mg/kg, 6 h, dose level Low): 78.8% | MCH (1 mg/kg, 6 h, dose level Low): 21.8 pg | MCHC (1 mg/kg, 6 h, dose level Low): 33.1% | MCV (1 mg/kg, 6 h, dose level Low): 66 fL | Mono (1 mg/kg, 6 h, dose level Low): 9% | Neu (1 mg/kg, 6 h, dose level Low): 11.6% | PT (1 mg/kg, 6 h, dose level Low): 12.5 s | Plat (1 mg/kg, 6 h, dose level Low): 104.4 x10_4/uL | RBC (1 mg/kg, 6 h, dose level Low): 623.2 x10_4/ul | Ret (1 mg/kg, 6 h, dose level Low): 9.4% | WBC (1 mg/kg, 6 h, dose level Low): 102.9 x10_2/uL | KIDNEY_L (1 mg/kg, 6 h, dose level Low): 1 g | KIDNEY_R (1 mg/kg, 6 h, dose level Low): 0.9 g | KIDNEY_TOTAL (1 mg/kg, 6 h, dose level Low): 1.9 g | LIVER (1 mg/kg, 6 h, dose level Low): 8.8 g | A/G (1 mg/kg, 6 h, dose level Low): 1.7 | ALP (1 mg/kg, 6 h, dose level Low): 1218.4 IU/L | ALT (1 mg/kg, 6 h, dose level Low): 35.8 IU/L | AST (1 mg/kg, 6 h, dose level Low): 70.6 IU/L | BUN (1 mg/kg, 6 h, dose level Low): 11 mg/dL | CRE (1 mg/kg, 6 h, dose level Low): 0.5 mg/dL | Ca (1 mg/kg, 6 h, dose level Low): 10.2 mg/dL | Cl (1 mg/kg, 6 h, dose level Low): 105.6 meq/L | DBIL (1 mg/kg, 6 h, dose level Low): 0.02 mg/dL | GLC (1 mg/kg, 6 h, dose level Low): 191.4 mg/dL | IP (1 mg/kg, 6 h, dose level Low): 9.4 mg/dL | K (1 mg/kg, 6 h, dose level Low): 5.1 meq/L | LDH (1 mg/kg, 6 h, dose level Low): 83.6 IU/L | Na (1 mg/kg, 6 h, dose level Low): 136.8 meq/L | PL (1 mg/kg, 6 h, dose level Low): 126.4 mg/dL | RALB (1 mg/kg, 6 h, dose level Low): 3.8 g/dL | TBIL (1 mg/kg, 6 h, dose level Low): 0.3 mg/dL | TC (1 mg/kg, 6 h, dose level Low): 75.8 mg/dL | TG (1 mg/kg, 6 h, dose level Low): 53.2 mg/dL | TP (1 mg/kg, 6 h, dose level Low): 6 g/dL | gamma-GTP (1 mg/kg, 6 h, dose level Low): 1.4 IU/L | TERMINAL_BW (1 mg/kg, 9 h, dose level Low): 198.6 g | APTT (1 mg/kg, 9 h, dose level Low): 16.5 s | Bas (1 mg/kg, 9 h, dose level Low): 0% | Eos (1 mg/kg, 9 h, dose level Low): 0.8% | Fbg (1 mg/kg, 9 h, dose level Low): 213 mg/dL | Hb (1 mg/kg, 9 h, dose level Low): 13.1 g/dL | Ht (1 mg/kg, 9 h, dose level Low): 39.4% | Lym (1 mg/kg, 9 h, dose level Low): 83.6% | MCH (1 mg/kg, 9 h, dose level Low): 21.8 pg | MCHC (1 mg/kg, 9 h, dose level Low): 33.3% | MCV (1 mg/kg, 9 h, dose level Low): 65.5 fL | Mono (1 mg/kg, 9 h, dose level Low): 6.6% | Neu (1 mg/kg, 9 h, dose level Low): 9.2% | PT (1 mg/kg, 9 h, dose level Low): 12.6 s | Plat (1 mg/kg, 9 h, dose level Low): 102.1 x10_4/uL | RBC (1 mg/kg, 9 h, dose level Low): 602 x10_4/ul | Ret (1 mg/kg, 9 h, dose level Low): 10.2% | WBC (1 mg/kg, 9 h, dose level Low): 141 x10_2/uL | KIDNEY_L (1 mg/kg, 9 h, dose level Low): 0.9 g | KIDNEY_R (1 mg/kg, 9 h, dose level Low): 1 g | KIDNEY_TOTAL (1 mg/kg, 9 h, dose level Low): 1.9 g | LIVER (1 mg/kg, 9 h, dose level Low): 8 g | A/G (1 mg/kg, 9 h, dose level Low): 2.6 | ALP (1 mg/kg, 9 h, dose level Low): 915 IU/L | ALT (1 mg/kg, 9 h, dose level Low): 35.6 IU/L | AST (1 mg/kg, 9 h, dose level Low): 68.2 IU/L | BUN (1 mg/kg, 9 h, dose level Low): 10.6 mg/dL | CRE (1 mg/kg, 9 h, dose level Low): 0.5 mg/dL | Ca (1 mg/kg, 9 h, dose level Low): 10 mg/dL | Cl (1 mg/kg, 9 h, dose level Low): 106.8 meq/L | DBIL (1 mg/kg, 9 h, dose level Low): 0.072 mg/dL | GLC (1 mg/kg, 9 h, dose level Low): 187.4 mg/dL | IP (1 mg/kg, 9 h, dose level Low): 10 mg/dL | K (1 mg/kg, 9 h, dose level Low): 5.1 meq/L | LDH (1 mg/kg, 9 h, dose level Low): 92.8 IU/L | Na (1 mg/kg, 9 h, dose level Low): 137.4 meq/L | PL (1 mg/kg, 9 h, dose level Low): 141.6 mg/dL | RALB (1 mg/kg, 9 h, dose level Low): 3.8 g/dL | TBIL (1 mg/kg, 9 h, dose level Low): 0.5 mg/dL | TC (1 mg/kg, 9 h, dose level Low): 85.8 mg/dL | TG (1 mg/kg, 9 h, dose level Low): 45.2 mg/dL
